According to the NIST ThermoML archive (doi:10.1016/j.jct.2012.03.034):
Numbers after ± are expanded uncertainties.

Assay: xn = mol fraction of the nth substance listed
Settings: 101 kPa, Liquid; for speed of sound: Linear variable-path acoustic interferometer; for mass density: Vibrating tube method; for viscosity: dual vibrating plate viscometer, AandD Co. Ltd Model SV-10

CC(=O)O.CCN(CC)CC [triethylammonium acetate] + CN1CCCC1=O
Settings | mass density [kg/m3] | speed of sound [m/s] | viscosity [mPa·s]
298.15 K, x1 = 0.0138 | 1026.09 ± 0.3 | 1564 ± 2 | 1.61 ± 0.03
298.15 K, x1 = 0.0302 | 1026.34 ± 0.3 | 1559 ± 2 | 1.76 ± 0.04
298.15 K, x1 = 0.0813 | 1026.88 ± 0.3 | 1556 ± 2 | 2.79 ± 0.06
298.15 K, x1 = 0.117 | 1026.93 ± 0.3 | 1554 ± 2 | 3.21 ± 0.07
298.15 K, x1 = 0.1733 | 1026.39 ± 0.31 | 1555 ± 2 | 3.79 ± 0.08
298.15 K, x1 = 0.2751 | 1023.97 ± 0.3 | 1560 ± 2 | 4.02 ± 0.08
298.15 K, x1 = 0.3189 | 1022.57 ± 0.31 | 1566 ± 2 | 3.83 ± 0.08
298.15 K, x1 = 0.3865 | 1019.96 ± 0.3 | 1578 ± 2 | 3.58 ± 0.07
298.15 K, x1 = 0.5133 | 1015.18 ± 0.3 | 1603 ± 2 | 3.4 ± 0.07
298.15 K, x1 = 0.6561 | 1010.89 ± 0.3 | 1648 ± 2 | 4.71 ± 0.1
298.15 K, x1 = 0.8181 | 1009.29 ± 0.3 | 1714 ± 2 | 10.14 ± 0.22
298.15 K, x1 = 0.926 | 1011.5 ± 0.3 | 1776 ± 2 | 17.25 ± 0.36
298.15 K, x1 = 0.9642 | 1012.97 ± 0.31 | 1799 ± 2 | 20.16 ± 0.43
298.15 K, x1 = 1 | 1015.86 ± 0.31 | 1840 ± 2 | 24.12 ± 0.5
303.15 K, x1 = 0.0138 | 1024.21 ± 0.31 | 1555 ± 2 | 1.52 ± 0.03
303.15 K, x1 = 0.0302 | 1024.48 ± 0.3 | 1555 ± 2 | 1.84 ± 0.04
303.15 K, x1 = 0.0813 | 1024.64 ± 0.3 | 1553 ± 2 | 2.67 ± 0.06
303.15 K, x1 = 0.117 | 1024.37 ± 0.31 | 1554 ± 2 | 3.1 ± 0.06
303.15 K, x1 = 0.1733 | 1023.53 ± 0.31 | 1555 ± 2 | 3.42 ± 0.07
303.15 K, x1 = 0.2751 | 1020.86 ± 0.31 | 1561 ± 2 | 3.62 ± 0.07
303.15 K, x1 = 0.3189 | 1019.42 ± 0.31 | 1566 ± 2 | 3.55 ± 0.07
303.15 K, x1 = 0.3865 | 1016.89 ± 0.3 | 1579 ± 2 | 3.18 ± 0.07
303.15 K, x1 = 0.5133 | 1012.16 ± 0.3 | 1602 ± 2 | 2.7 ± 0.06
303.15 K, x1 = 0.6561 | 1007.69 ± 0.3 | 1645 ± 2 | 3.42 ± 0.07
303.15 K, x1 = 0.8181 | 1005.54 ± 0.3 | 1713 ± 2 | 8.21 ± 0.17
303.15 K, x1 = 0.926 | 1006.58 ± 0.3 | 1769 ± 2 | 14.2 ± 0.3
303.15 K, x1 = 0.9642 | 1007.74 ± 0.3 | 1797 ± 2 | 17 ± 0.36
303.15 K, x1 = 1 | 1009.58 ± 0.3 | 1824 ± 2 | 19.6 ± 0.41
308.15 K, x1 = 0.0138 | 1020.18 ± 0.31 | 1530 ± 2 | 1.5 ± 0.03
308.15 K, x1 = 0.0302 | 1020.47 ± 0.3 | 1533 ± 2 | 1.81 ± 0.04
308.15 K, x1 = 0.0813 | 1020.35 ± 0.3 | 1536 ± 2 | 2.61 ± 0.06
308.15 K, x1 = 0.117 | 1019.88 ± 0.3 | 1539 ± 2 | 3.03 ± 0.06
308.15 K, x1 = 0.1733 | 1018.8 ± 0.3 | 1544 ± 2 | 3.36 ± 0.07
308.15 K, x1 = 0.2751 | 1015.91 ± 0.3 | 1553 ± 2 | 3.28 ± 0.07
308.15 K, x1 = 0.3189 | 1014.49 ± 0.3 | 1559 ± 2 | 3.14 ± 0.07
308.15 K, x1 = 0.3865 | 1011.99 ± 0.3 | 1572 ± 2 | 2.59 ± 0.05
308.15 K, x1 = 0.5133 | 1007.46 ± 0.3 | 1593 ± 2 | 2.51 ± 0.05
308.15 K, x1 = 0.6561 | 1003.25 ± 0.29 | 1632 ± 2 | 3.1 ± 0.07
308.15 K, x1 = 0.8181 | 1000.89 ± 0.29 | 1698 ± 2 | 7.76 ± 0.16
308.15 K, x1 = 0.926 | 1001.01 ± 0.29 | 1753 ± 2 | 13.1 ± 0.27
308.15 K, x1 = 0.9642 | 1001.75 ± 0.29 | 1776 ± 2 | 14.98 ± 0.31
308.15 K, x1 = 1 | 1002.61 ± 0.29 | 1798 ± 2 | 16.13 ± 0.33
313.15 K, x1 = 0.0138 | 1015.8 ± 0.31 | 1525 ± 2 | 1.47 ± 0.03
313.15 K, x1 = 0.0302 | 1016.2 ± 0.3 | 1527 ± 2 | 1.72 ± 0.04
313.15 K, x1 = 0.0813 | 1016.66 ± 0.3 | 1529 ± 2 | 2.3 ± 0.05
313.15 K, x1 = 0.117 | 1016.4 ± 0.3 | 1530 ± 2 | 2.78 ± 0.06
313.15 K, x1 = 0.1733 | 1015.69 ± 0.3 | 1535 ± 2 | 3.04 ± 0.06
313.15 K, x1 = 0.2751 | 1013.39 ± 0.3 | 1543 ± 2 | 2.98 ± 0.06
313.15 K, x1 = 0.3189 | 1012.13 ± 0.3 | 1548 ± 2 | 2.83 ± 0.06
313.15 K, x1 = 0.3865 | 1010.15 ± 0.3 | 1561 ± 2 | 2.38 ± 0.05
313.15 K, x1 = 0.5133 | 1006.1 ± 0.29 | 1582 ± 2 | 2.34 ± 0.05
313.15 K, x1 = 0.6561 | 1002.5 ± 0.29 | 1616 ± 2 | 3.01 ± 0.06
313.15 K, x1 = 0.8181 | 1000.41 ± 0.29 | 1669 ± 2 | 7.08 ± 0.15
313.15 K, x1 = 0.926 | 1000.32 ± 0.29 | 1716 ± 2 | 11.65 ± 0.24
313.15 K, x1 = 0.9642 | 1000.61 ± 0.29 | 1735 ± 2 | 13.39 ± 0.28
313.15 K, x1 = 1 | 1000.97 ± 0.29 | 1752 ± 2 | 14.81 ± 0.31
